Source: BindingDB's records for PubMed 34147747 (n/a, 2021)

How the values were obtained:
[1] = molecular target: corticotropin-releasing factor receptor (rat); test: Binding affinity to rat CRF receptor assessed as inhibition constant
[2] = Binding affinity to CRF (unknown origin) receptor assessed as inhibition constant

SMILES	Ki [1]	Ki [2]
CCCC(CCC)c1c(CC)nn2c(-c3ccc(Cl)cc3Cl)nc(C)nc12	1 nM	–
CCCC(COC)c1c(CC)nn2c(-c3ccc(Cl)cc3Cl)nc(C)nc12 (stereo not given)	1.4 nM	–
CCCC(COC)c1c(CC)nn2c(-c3cc(OC)c(OC)cc3Cl)nc(C)nc12 (stereo not given)	2 nM	–
CCCC(C)c1c(CC)nn2c(-c3cc(OC)c(OC)cc3Cl)nc(C)nc12 (stereo not given)	2.6 nM	–
CCCC(CCC)c1c(CC)nn2c(-c3cc(OC)c(OC)cc3Cl)nc(C)nc12	–	0.7 nM
